# “Also recorded” adds a separate entry of the source.
# Experiments:
# [1] = system: blood pressure and heart rate; assay: Circulatory effects (arterial pressure, heart rate) during neuromuscular blockade in rhesus monkeys; assay type: in vivo, rhesus monkey (Macaca mulatta); details: rhesus monkey
# Experimental: Thus, the undesired side effect of tachycardia is not induced by a compound of the invention at a dose effective to induce NMB.
# (§1) On the day of each study, monkeys received ketamine (7-10 mg/kg i.m.) followed by tracheal intubation under topical anesthesia with 4% lidocaine. Ventilation was controlled at 10 mL/kg and 20 breaths/min with isoflurane (1.0-2.0%) and N2O/O2 (2:1 mixture). Ringers lactate was administered at ˜10 ml kg^−1 h^−1. Arterial pressure was monitored from a femoral, superficial tibial, or radial (22 gauge) cannula. Heart rate was measured by tachograph from the arterial pulse wave. Core temperature was kept at 36.5-38.0° C. by warming blankets. Electrocardiogram and pulse oximetry were monitored continuously.
# (§2) Recordings of circulatory and neuromuscular data were made on a Grass 7B polygraph (Grass Instruments). A baseline period of 15-20 min was allowed for stabilization of recordings prior to dosing.^2
# [2] = system: twitch responses of the extensor digitorum of the foot (peroneal nerve stimulation); assay: Neuromuscular blocking potency and duration: twitch blockade dose-response in anesthetized rhesus monkeys; assay type: in vivo, rhesus monkey (Macaca mulatta)
# Experimental: (§3) Selected NMBA compounds were tested as described in PCT/US2010/000796 application by an inventor herein, published as WO2010/107488, which is incorporated by reference, see pages 66-78. Dose-response curves for twitch blockade by test compounds were generated as described. […] Successive doses were separated by at least three estimated half lives beyond complete recovery of the previous dose to TOF of 110-120%, which is normal for these monkeys. Only the first one or two doses yielding 5 to 99% blockade were included from any single experiment for computation of dose-response data. Comparative studies of spontaneous recovery versus antagonism/reversal were done at least 3 estimated half-lives following dose-response studies. ED50 and ED95 were computed from the regression of log dose vs. the logit of percentage blockade of twitch.
# Experiments were approved by the Institutional Animal Care and Use Committee of Weill Medical College of Cornell University (New York, N.Y.) and of Albany Medical College (Albany, N.Y.), where the studies were conducted. A colony of 10 adult male monkeys (Macaca mulatta) weighing 8-18 kg was studied at ˜6 week intervals. Animals were housed and cared for in accordance with the Guide for Care and Use of Laboratory Animals (National Research Council, Washington, D.C.). They were fed a standard Old World monkey diet, enriched with fruits and vegetables, and other dietary novelties and were followed throughout the study to verify normal health by physical examination, body weight, and clinical laboratory studies (Complete Blood Count, Blood Urea Nitrogen and creatinine, and liver function tests).
# as §1
# (§4) Needle electrodes (25 gauge) transmitting square-wave pulses of 0.2 msec duration at supramaximal voltage which were generated by a Grass S-88 stimulator (Grass Instruments, Quincy, Mass.) were placed at the peroneal nerve at the knee to elicit twitch responses of the extensor digitorum of the foot at 0.15 Hz. A small slip (10-20%) of the tendon was dissected free under sterile technique and tied to a Grass FT 10 force transducer (Grass Instruments, Quincy, Mass.) at a baseline tension of 50 gm. Train-of four stimulation (TOF, 2 Hz for 2 sec) was interposed at appropriate points, especially 1-2 min prior to NMBA dosing and following recovery of twitch to 95% of baseline, where TOF was subsequently evaluated every 1-2 min.
# as §2
# Dose-response curves for twitch blockade by gantacurium, CW 002, CW 011, cisatracurium, CW002-Cys, NB 938-69, NB 1064-81, NB 802-17 (CW 001), NB 832-65, and NB 1163-79, structures of which are all shown above, were generated as follows. […] Successive doses were separated by at least three estimated half lives beyond complete recovery of the previous dose to TOF of 110-120%, which is normal for these monkeys. Only the first one or two doses yielding 5 to 99% blockade were included from any single experiment for computation of dose-response data.
# ED 50 and ED 95 were computed from the regression of log dose vs. the logit of percentage blockade of twitch.
# [3] = system: twitch responses of the extensor digitorum of the foot (peroneal nerve stimulation); assay: Spontaneous recovery versus reversal of neuromuscular blockade by cysteine in monkeys; assay type: in vivo, rhesus monkey (Macaca mulatta); details: for Total Duration (Spontaneous Recovery): injection to 95% twitch height
# Experimental: as §3, §1, §4
# Comparative studies of spontaneous recovery versus antagonism/reversal were done at least 3 estimated half-lives following dose-response studies.
# [4] = system: mean arterial pressure; assay: Rise in mean arterial pressure after cysteine dosing; details: 100 mg/kg
# [5] = Properties of cysteine solutions (solubility, natural pH); assay type: physicochemical; details: cysteine in its base form
# Experimental: To accomplish the reversal of a neuromuscular blockade generated by one of these agents, cysteine is administered by intravenous injection. However, the natural pH of cysteine hydrochloride solutions at concentrations of 50 mg/ml or more in aqueous solution (e.g., 0.9% saline) is very low, ranging from about pH 0.8 to about pH 1.0. Moreover, cysteine is not soluble at concentrations greater than 50 mg/ml in its base form, but higher concentrations of cysteine are more conveniently administered for reversal of neuromuscular blockades. For example, bolus administration of volumes greater than 50 ml over a time period of 5-10 sec is generally not convenient in an operating room. Therefore, to be administered to patients, cysteine solutions have been developed that have higher concentrations and higher pH values as described herein.
# [6] = Table 3, dose 0.064 ± 0.010 (gantacurium) or 0.060 ± 0.012 mg/kg (CW1759-50)
smiles,measurement,setting,value
COc1ccc(C[C@@H]2c3cc(OC)c(OC)cc3CC[N@@+]2(C)CCCOC(=O)/C=C\C(=O)OCCC[N+]2(Cc3ccc(OC)c(OC)c3)CCOCC2)cc1 [Compound 1726-01],effect on blood pressure,"[1]; 0.06 mg/kg dose, FIG. 2",no apparent effect on blood pressure
same,effect on heart rate / tachycardia,"[1]; 0.06 mg/kg, dose effective to induce NMB",no apparent effect on heart rate
same,"duration of neuromuscular blockade (spontaneous recovery, FIG. 2)","[2]; 0.06 mg/kg dose, rhesus monkey",about six
same,ED95,"[2]; Macaca mulatta, Table 1, calculated dose for 95% block of twitch, monkeys, read-out: ED 95",0.05 mg/kg
same,Duration (min ± SD),"[2]; Table 1, at the actual dose administered, injection to recovery of twitch to 95% of control",7.6 ± 2.4 min
same,Blockade (%),[2]; [6],99.3 ± 0.2%
same,Onset,[2]; [6],94.0 ± 8.7 s
same,Total Duration,[2]; [6],8.2 ± 1.5 min
same,"potency compared with gantacurium (% blockade, time to onset, total duration of effect)",[2]; Table 3 comparison,comparable to gantacurium in potency
same,"ED95 (statistical analysis of dose-response study, FIG. 1)",[2]; rhesus monkeys,0.054 ± 0.0022 mg/kg
same,spontaneous reversal of blockade time (FIG. 4),[3]; 100% block,more than 10 minutes
same,cysteine-induced reversal time (FIG. 4),"[3]; 100% block, 30 mg/kg L-cysteine hydrochloride",≤ 2 min
same,5-95% Interval with L-Cysteine,"[3]; L-cysteine 30 mg/kg at +1 min following bolus 0.2 mg/kg (4x ED95), Point A",1.9 ± 0.2
same,5-95% Interval with L-Cysteine,"[3]; L-cysteine 30 mg/kg at +1 min following discontinuation of infusion (30-120 mins), Point B",2.1 ± 0.2
same,Reversibility (Cysteine),"[3]; Table 1, reversal of the blockade by cysteine",Yes
same,5-95% Interval (Spontaneous Recovery),"[3]; bolus 0.2 mg/kg (4x ED95), Point A",6.2 ± 0.2
same,Total Duration (Spontaneous Recovery),[3]; bolus 0.2 mg/kg (4x ED95),11.9 ± 0.3 min
same,5-95% Interval (Spontaneous Recovery),[3]; bolus 0.05-0.06 mg/kg (ED99),5.2 ± 0.2
same,Total Duration (Spontaneous Recovery),[3]; bolus 0.05-0.06 mg/kg (ED99),7.3 ± 0.3 min
same,dependence of recovery (5-95% twitch recovery interval) on dosage or duration of infusion (FIG. 5),"[3]; bolus or infusion, spontaneous or L-cysteine induced recovery, listed as 1759-50",not significantly effected by the previous duration of infusion; also recorded: unaffected by dosage or duration of infusion
same,5-95% Interval (Spontaneous Recovery),"[3]; continuous infusions, 30-120 mins, Point B",5.2 ± 0.3
same,spontaneous reversal time (FIG. 3),[3]; dose of 4x the ED95 dose,about 11 minutes
same,time to termination of blockade following L-cysteine administration (FIG. 3),"[3]; dose of 4x the ED95 dose, 30 mg/kg L-cysteine hydrochloride",about two
N[C@H](CS)C(=O)O [D-cysteine],rise in mean arterial pressure compared with L-cysteine,[4],less of a rise in mean arterial pressure than L-cysteine
N[C@@H](CS)C(=O)O [cysteine],solubility,[5],≤ 50 mg/mL
